Consider 22 molecules from ChEMBL document CHEMBL1132741, “Novel antifungals based on 4-substituted imidazole: a combinatorial chemistry approach to lead discovery and optimization” (Bioorg Med Chem Lett, 2000).

The nature of test [1]: Antifungal activity against molds expressed as negative log (pLAD value). The test is classed as functional, mould.
Test [2] has as its system Saccharomyces cerevisiae. The test can be described thus: Antifungal activity against yeast expressed as negative log (pLAD value). The test is classed as functional.
In test [3] the test system is Aspergillus fumigatus. Put plainly: Minimum inhibitory concentration of compound for antifungal activity against Aspergillus fumigatus. The test is classed as functional.
In test [4] the test system is Nakaseomyces glabratus. Put plainly: Minimum inhibitory concentration of compound for antifungal activity against Candida glabrata. The test is classed as functional.
The subject of test [5] is Kluyveromyces marxianus. The test can be described thus: Minimum inhibitory concentration of compound for antifungal activity against Candida kefyr. The test is classed as functional.
For test [6], the system named is Candida albicans. Put plainly: Minimum inhibitory concentration of compound for antifungal activity against Candida albicans 1. The test is classed as functional.
For test [7], the system named is Candida albicans. Put plainly: Minimum inhibitory concentration of compound for antifungal activity against Candida albicans 2. The test is classed as functional.
Test [8] deals with Candida albicans. Put plainly: Minimum inhibitory concentration of compound for antifungal activity against Candida albicans 4. The test is classed as functional.
The subject of test [9] is Candida parapsilosis. The test can be described thus: Minimum inhibitory concentration of compound for antifungal activity against Candida parapsilosis. The test is classed as functional. The settings on record: Lodderomyces parapsilosis.
Test [10] concerns Candida tropicalis. Put plainly: Minimum inhibitory concentration of compound for antifungal activity against Candida tropicalis. It is filed as functional.
For test [11], the system named is Pichia kudriavzevii. Put plainly: Minimum inhibitory concentration of compound for antifungal activity against Candida krusei. The test is classed as functional.
Test [12] has as its system Cryptococcus neoformans. The test can be described thus: Minimum inhibitory concentration of compound for antifungal activity against Cryptococcus neoformans. The test is classed as functional.
In test [13] the test system is Microsporum canis. The test can be described thus: Minimum inhibitory concentration of compound for antifungal activity against Mucosporam canis. The test is classed as functional.
Test [14] has as its system Trichophyton benhamiae. Put plainly: Minimum inhibitory concentration of compound for antifungal activity against Trichophyton mentagrophytes. It is filed as functional, Arthroderma benhamiae.
Test [15] relates to Trichophyton rubrum. The test can be described thus: Minimum inhibitory concentration of compound for antifungal activity against Trichophyton rubrum. The test is classed as functional.
The subject of test [16] is Sporothrix schenckii. The test can be described thus: Minimum inhibitory concentration of compound for antifungal activity against Sporothrix schenck ii. The test is classed as functional.
Test [17] deals with Candida albicans. Put plainly: Inhibition of ergosterol synthesis as measured in Candida albicans subcellular screen. The test is classed as functional.

In brackets after ≈: the same amount, converted by molar mass.

Molecule `CCCCOc1ccc(S(=O)(=O)N(Cc2c[nH]cn2)[C@H](C)C2CCCCC2)cc1` registered a pLADm in test [1] of 4.6. Further, the pLADy in test [2] is listed as 6.13.

Molecule `CCCCOc1ccc(S(=O)(=O)N(Cc2c[nH]cn2)[C@@H](C)C2CCCCC2)cc1` yielded a pLADm in [1] of 5. The molecule also registered a pLADy in test [2] of 5.9.

`CCCCOc1ccc(S(=O)(=O)N(CCc2ccc(F)cc2)CC2=CNC(C)N2)cc1` (centres undefined) showed a pLADm in test [1] of 3.92. The same molecule displayed a pLADy in [2] of 3.95.

As for `CCCCOc1ccc(S(=O)(=O)N(Cc2c[nH]cn2)C(CC)C2CCCCC2)cc1` (centres undefined), the MIC in [3] is > 10 µM; in test [4], 1 µM (≈ 0.434 µg/mL); in test [5], < 0.1 µM; in test [6], > 10 µM; in test [7], < 0.1 µM; in test [8], < 0.1 µM. The MIC is < 0.1 µM in [9]; 1 µM (≈ 0.434 µg/mL) in test [10]; 1 µM (≈ 0.434 µg/mL) in test [11]; 1 µM (≈ 0.434 µg/mL) in test [12]; 1 µM (≈ 0.434 µg/mL) in [13]; 10 µM (≈ 4.34 µg/mL) in test [14]. Besides, the MIC in test [15] is 1 µM (≈ 0.434 µg/mL); in test [16], > 10 µM. In addition, the pLADm in test [1] is 5. In addition, the pLADy in test [2] is given as >6.8.

`CCCCOc1ccc(S(=O)(=O)N(CC2CCCCC2)C(C)c2c[nH]cn2)cc1` (centres undefined) gave a pLADm in [1] of 4. This molecule showed a pLADy in test [2] of 6.3.

Turning to `CCCCOc1ccc(S(=O)(=O)N(Cc2c[nH]cn2)CC2CCCCC2)cc1`, the pLADm in test [1] amounted to 3.6. Besides, the pLADy in [2] stood at 6.1.

In the case of `CC(C)C(C(C)C)N(Cc1c[nH]cn1)S(=O)(=O)c1cc(Cl)sc1Cl`, the IC50 in [17] is 71 nM. In addition, in [1], the pLADm is listed as 4.5. Also, the pLADy in test [2] was determined as 6.3.

As to `CCCCOc1ccc(S(=O)(=O)N(CC2CCCCC2)C(c2ccccc2)c2c[nH]cn2)cc1` (centres undefined), in [1], the pLADm was determined as 4. Besides, the pLADy in [2] was 5.1.

In turn, `CCCCOc1ccc(S(=O)(=O)N(CCc2ccc(F)cc2)Cc2nc[nH]n2)cc1` had a pLADm in [1] of 3.92. In test [2], this molecule gave a pLADy of 3.95.

As for `CCCCCCN(Cc1c[nH]cn1)S(=O)(=O)c1ccc(OCCCC)cc1`, the midpoint of inhibition in test [17], the IC50, lay at 76 nM. In test [1], the pLADm worked out at 5.2. The pLADy in test [2] came out at 6.1.

Molecule `CCCCOc1ccc(S(=O)(=O)N(CCCCc2ccccc2)Cc2c[nH]cn2)cc1` yielded an IC50 in [17] of 27 nM. The molecule further yielded a pLADm in [1] of 5.2. In [2], the pLADy was 5.4.

In test [1], `CCCCOc1ccc(S(=O)(=O)N(Cc2c[nH]cn2)C(C2CCCCC2)C2CCCCC2)cc1` displayed a pLADm of 4. The molecule further gave a pLADy in test [2] of 5.

On to `CCCCOc1ccc(S(=O)(=O)N(CCc2ccc(F)cc2)Cc2c[nH]cn2)cc1`, for which the MIC in test [3] is > 10 µM; in [4], 10 µM (≈ 4.32 µg/mL); in [5], < 0.1 µM; in [6], > 10 µM; in test [7], < 0.1 µM; in test [8] it was 10 µM (≈ 4.32 µg/mL). Further, the MIC is 1 µM (≈ 0.432 µg/mL) in test [9]; < 0.1 µM in [10]; > 10 µM in test [11]; 1 µM (≈ 0.432 µg/mL) in test [12]; 10 µM (≈ 4.32 µg/mL) in [13]; > 10 µM in test [14]. Further, the minimal inhibitory concentration (MIC) in test [15] is 1 µM (≈ 0.432 µg/mL); in test [16], > 10 µM. Also, it took 26 nM to reach half-maximal inhibition in test [17] (IC50). The pLADm in [1] turned out to be 4.6. This molecule also showed a pLADy in [2] of 6.2.

Regarding `CCCCOc1ccc(S(=O)(=O)N(Cc2c[nH]cn2)C(C(C)C)C(C)C)cc1`, the MIC in test [3] was > 10 µM; in [4], 10 µM (≈ 4.08 µg/mL); in test [5], < 0.1 µM; in test [6], > 10 µM; in test [7], < 0.1 µM; in test [8] it was < 0.1 µM. Besides, the MIC in test [9] was determined as 0.1 µM (≈ 0.0408 µg/mL); in test [10], 0.1 µM (≈ 0.0408 µg/mL); in test [11] it was 10 µM (≈ 4.08 µg/mL); in test [12] it was 1 µM (≈ 0.408 µg/mL); in [13], 1 µM (≈ 0.408 µg/mL); in test [14], 10 µM (≈ 4.08 µg/mL). For the same molecule, the MIC in test [15] was 1 µM (≈ 0.408 µg/mL); in test [16], > 10 µM. The same molecule showed an IC50 in test [17] of 73 nM. The molecule further displayed a pLADm in [1] of 5. The molecule also had a pLADy in test [2] of 6.7.

Regarding `CCCCOc1ccc(S(=O)(=O)N(CCc2ccccc2F)Cc2[nH]cnc2C)cc1`, the pLADm in test [1] is listed as <4. Further, the pLADy in [2] is listed as <4.

`CCCCOc1ccc(S(=O)(=O)N(Cc2cncn2C)C(C)C2CCCCC2)cc1` (centres undefined): the MIC in [3] is > 10 µM; in test [4], 1 µM (≈ 0.434 µg/mL); in test [5], < 0.1 µM; in test [6] it was > 10 µM; in test [7], < 0.1 µM; in test [8], 10 µM (≈ 4.34 µg/mL). For the same molecule, the minimum inhibitory concentration (MIC) in [9] came out at 0.1 µM (≈ 0.0434 µg/mL); in test [10], 0.1 µM (≈ 0.0434 µg/mL); in test [11], 1 µM (≈ 0.434 µg/mL); in test [12], 1 µM (≈ 0.434 µg/mL); in test [13], 1 µM (≈ 0.434 µg/mL); in test [14], 10 µM (≈ 4.34 µg/mL). Further, the MIC is 1 µM (≈ 0.434 µg/mL) in [15] and > 10 µM in test [16]. In [1], this molecule showed a pLADm of 4.8. The pLADy in test [2] was found to be 6.6.

In [17], `Brc1ccc(CCN(Cc2ccc(-c3ccccc3)cc2)Cc2c[nH]cn2)cc1` returned an IC50 of 1240 nM. The molecule further gave a pLADm in test [1] of 5.8. For the same molecule, in [2], the pLADy is given as 4.9.

Take `CCCCCc1ccc(S(=O)(=O)N(CCC(C)C)Cc2c[nH]cn2)cc1`: the IC50 in test [17] was found to be 120 nM. This molecule also came in with a pLADm in test [1] of 5. In [2], this molecule yielded a pLADy of 6.4.

Turning to `CCCCOc1ccc(S(=O)(=O)N(CCc2cccs2)Cc2c[nH]cn2)cc1`, the IC50 in test [17] was 11 nM. The molecule further gave a pLADm in [1] of 4.4. The same molecule came in with a pLADy in [2] of 6.5.

As to `OC(Cn1cncn1)(Cn1cncn1)c1ccc(F)cc1F` [FLUCONAZOLE], the MIC was > 10 µM in [3]; > 10 µM in test [4]; 1 µM (≈ 0.306 µg/mL) in [5]; > 10 µM in test [6]; 1 µM (≈ 0.306 µg/mL) in test [7]; 1 µM (≈ 0.306 µg/mL) in [8]. Moreover, the MIC was 10 µM (≈ 3.06 µg/mL) in test [9]; > 10 µM in test [10]; > 10 µM in [11]; 10 µM (≈ 3.06 µg/mL) in [12]; 10 µM (≈ 3.06 µg/mL) in [13]; > 10 µM in test [14]. Also, the MIC is 10 µM (≈ 3.06 µg/mL) in test [15] and > 10 µM in [16].

In the case of `CCC(C)n1ncn(-c2ccc(N3CCN(c4ccc(OCC5COC(Cn6cncn6)(c6ccc(Cl)cc6Cl)O5)cc4)CC3)cc2)c1=O` (centres undefined) [ITRACONAZOLE], the MIC in [3] was 1 µM (≈ 0.706 µg/mL); in [4] it was 1 µM (≈ 0.706 µg/mL); in test [5], < 0.1 µM; in [6], > 10 µM; in test [7] it was < 0.1 µM; in test [8], > 10 µM. The MIC is < 0.1 µM in [9]; 0.1 µM (≈ 0.0706 µg/mL) in test [10]; 1 µM (≈ 0.706 µg/mL) in test [11]; < 0.1 µM in [12]; < 0.1 µM in [13]; 0.1 µM (≈ 0.0706 µg/mL) in [14]. Besides, the MIC in test [15] was < 0.1 µM; in test [16], 10 µM (≈ 7.06 µg/mL).

As to `CC(=O)N1CCN(c2ccc(OC[C@H]3CO[C@](Cn4ccnc4)(c4ccc(Cl)cc4Cl)O3)cc2)CC1` [KETOCONAZOLE], the MIC was 10 µM (≈ 5.31 µg/mL) in test [3]; 10 µM (≈ 5.31 µg/mL) in [4]; < 0.1 µM in [5]; > 10 µM in test [6]; 0.1 µM (≈ 0.0531 µg/mL) in [7]; 10 µM (≈ 5.31 µg/mL) in test [8]. Further, the MIC is 0.1 µM (≈ 0.0531 µg/mL) in test [9]; 10 µM (≈ 5.31 µg/mL) in test [10]; 1 µM (≈ 0.531 µg/mL) in [11]; 0.1 µM (≈ 0.0531 µg/mL) in test [12]; 1 µM (≈ 0.531 µg/mL) in test [13]; 10 µM (≈ 5.31 µg/mL) in [14]. Moreover, the MIC was found to be 0.1 µM (≈ 0.0531 µg/mL) in test [15] and 10 µM (≈ 5.31 µg/mL) in [16].
